Data set [1] deals with HCV replicon cells Huh 9B. The data set can be described thus: HCV replicon assay (luciferase readout). Format: cell-based. Summed up:
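Compounds, made up at twice final strength (final DMSO 1%), were added to subgenomic replicon cells one day after plating. Incubation then ran 72 h at 37 °C, 5% CO2, without G418. Replication was quantified as firefly luciferase luminescence in lysed cells, with cytotoxicity assessed on a duplicate clear plate.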

The subject of data set [2] is HCV replicon cells Huh 9B. Format: cell-based.
Setting [3] is: Hepatitis C virus, 72 h, concentration reducing replicon level (luciferase activity) by 50% vs untreated cell control, 72 h incubation.
[4] abbreviates: concentration reducing total cell area by 50% relative to DMSO controls, methylene blue, absorbance 620 nm, 72 h incubation.

pIC50: −log10 of the molar value. Like-named read-outs stand apart in the source and are kept apart here. Where only a bound is given, the exact number is not on record here.

In the case of `Cc1ccc(NC(=O)c2ccc(N3CCOCC3)cc2)cc1-c1ccc(C(=O)Nc2ccc3[nH]c(C(F)(F)F)nc3c2)cc1` [Example 85, 2′-Methyl-5′-(4-morpholin-4-yl-benzoylamino)-biphenyl-4-carboxylic acid (2-trifluoromethyl-1H-benzoimidazol-5-yl)-amide], the negative logarithm of the IC50 (pIC50) (commonly the IC50 on a negative log10 scale, so that one unit is a factor of ten) in data set [1] (setting [3]) is 5.30 to 6.00. Further, the TD50 entry in data set [2] (setting [4]) is listed as “** (** > 50 μM)”.
In the case of `Cc1ccc(C(=O)NC2CC2)cc1-c1ccc(C(=O)Nc2ccc(CN3CCS(=O)(=O)CC3)cc2)cc1` [Example 121, 6-Methyl-biphenyl-3,4′-dicarboxylic acid 3-cyclopropylamide 4′-{[4-(1,1-dioxo-1lambda*6*-thiomorpholin-4-ylmethyl)-phenyl]-amide}], the pIC50 in data set [1] is 5.30 to 6.00. Further, the TD50 result in data set [2] is reported as “* (key: * < 50 μM; ** > 50 μM)”.
Regarding `Cc1ccc(C(=O)Nc2ccc(N3CCOCC3)cc2)cc1-c1ccc(C(=O)Nc2ccc(C(=O)N(C)C)cc2)cc1` [Example 70, 6-Methyl-biphenyl-3,4′-dicarboxylic acid 4′-[(4-dimethylcarbamoyl-phenyl)-amide] 3-[(4-morpholin-4-yl-phenyl)-amide]], the negative-log IC50 (pIC50) in data set [1] is 5.30 to 6.00. In data set [2], the TD50 result is “* (key: * < 50 μM; ** > 50 μM)”.
In turn, `Cc1ccc(C(=O)Nc2ccc(N3CCOCC3)cc2)cc1-c1ccc(C(=O)NCCC(C)C)cc1` [Example 4, 6-Methyl-biphenyl-3,4′-dicarboxylic acid 4′-[(3-methyl-butyl)-amide] 3-[(4-morpholin-4-yl-phenyl)-amide]] had a negative logarithm of the IC50 (pIC50) in data set [1] of 5.30 to 6.00. Further, the TD50 entry in data set [2] was “** (key: * < 50 μM; ** > 50 μM)”.
`Cc1ccc(C(=O)Nc2ccc(N3CCOCC3)cc2)cc1-c1ccc(C(=O)Nc2ccc(CO)cc2)cc1` [Example 81, 6-Methyl-biphenyl-3,4′-dicarboxylic acid 4′-[(4-hydroxymethyl-phenyl)-amide] 3-[(4-morpholin-4-yl-phenyl)-amide]] showed a negative logarithm of the IC50 (pIC50) in data set [1] of 5.30 to 6.00. In addition, in data set [2], the TD50 result is reported as “* (key: * < 50 μM; ** > 50 μM)”.
In the same order, the values of `Cc1ccc(C(=O)Nc2ccc(N3CCOCC3)cc2)cc1-c1ccc(C(=O)Nc2ccc(CN3CCNCC3)cc2)cc1` [Example 82, 6-Methyl-biphenyl-3,4′-dicarboxylic acid 3-[(4-morpholin-4-yl-phenyl)-amide] 4′-[(4-piperazin-1-ylmethyl-phenyl)-amide]] are 5.30 to 6.00 and “* (key: * < 50 μM; ** > 50 μM)”.
As to `CCNC(=O)Nc1ccc(C)c(-c2ccc(C(=O)Nc3ccc(CN4CCS(=O)(=O)CC4)cc3)cc2)c1` [Example 188, 5′-(3-Ethyl-ureido)-2′-methyl-biphenyl-4-carboxylic acid [4-(1,1-dioxo-1lambda*6*-thiomorpholin-4-ylmethyl)-phenyl]-amide], the negative logarithm of the IC50 (pIC50) in data set [1] (setting [3]) was above 6.00. Besides, in data set [2] (setting [4]), the TD50 entry was “* (* < 50 μM)”.
In the same order, the values of `Cc1ccc(NC(=O)C2CC2)cc1-c1ccc(C(=O)Nc2cccc(CN(C)C)c2)cc1` [Example 225, 5′-(Cyclopropanecarbonyl-amino)-2′-methyl-biphenyl-4-carboxylic acid (3-dimethylaminomethyl-phenyl)-amide] are below 5.30 and “* (* < 50 μM)”.
`Cc1ccc(C(=O)Nc2ccc(N3CCOCC3)cc2)cc1-c1ccc(CNCc2cccc(Cl)c2)cc1` [Example 96, 4′-[(3-Chloro-benzylamino)-methyl]-6-methyl-biphenyl-3-carboxylic acid (4-morpholin-4-yl-phenyl)-amide] gave a pIC50 in data set [1] (setting [3]) of 5.30 to 6.00. In data set [2] (setting [4]), the TD50 result is “** (** > 50 μM)”.
For `O=C(Nc1ccc2[nH]ccc2c1)c1ccc(-c2cccc(C(=O)Nc3ccc(N4CCOCC4)cc3)c2)cc1` [Example 59, Biphenyl-3,4′-dicarboxylic acid 4′-[(1H-indol-5-yl)-amide] 3-[(4-morpholin-4-yl-phenyl)-amide]], the negative-log IC50 (pIC50) in data set [1] is 5.30 to 6.00. The TD50 entry in data set [2] was “** (key: * < 50 μM; ** > 50 μM)”.
As to `Cc1ccc(NC(=O)c2ccc(N3CCOCC3)cc2)cc1-c1ccc(C(=O)Nc2ccc(Br)c(Cl)c2)cc1` [Example 90, 2′-Methyl-5′-(4-morpholin-4-yl-benzoylamino)-biphenyl-4-carboxylic acid (4-bromo-3-chloro-phenyl)-amide], the negative logarithm of the IC50 (pIC50) in data set [1] (setting [3]) was below 5.30. The TD50 result in data set [2] (setting [4]) is “** (** > 50 μM)”.
In data set [1], `Cc1cc(C(=O)Nc2ccc(N3CCOCC3)cc2)ccc1-c1cccc(C(=O)Nc2ccc(-c3ccno3)cc2)c1` [Example 65, 2′-Methyl-biphenyl-3,4′-dicarboxylic acid 3-[(4-isoxazol-5-yl-phenyl)-amide] 4′-[(4-morpholin-4-yl-phenyl)-amide]] showed a pIC50 above 6.00. The TD50 result in data set [2] is “* (key: * < 50 μM; ** > 50 μM)”.
Molecule `Cc1ccc(C(=O)NC2CC2)cc1-c1ccc(C(=O)Nc2ccc(N3CCOCC3)cc2)cc1` [Example 17, 6-Methyl-biphenyl-3,4′-dicarboxylic acid 3-cyclopropylamide 4′-[(4-morpholin-4-yl-phenyl)-amide]] had a pIC50 in data set [1] of 5.30 to 6.00. Further, in data set [2], the TD50 result is on record as “* (key: * < 50 μM; ** > 50 μM)”.
On the same counts, the results for `Cc1ccc(C(=O)Nc2ccc(N3CCOCC3)cc2)cc1-c1ccc(C(=O)Nc2ccc(-c3ccno3)cc2)cc1` [Example 28, 6-Methyl-biphenyl-3,4′-dicarboxylic acid 4′-[(4-isoxazol-5-yl-phenyl)-amide] 3-[(4-morpholin-4-yl-phenyl)-amide]] are above 6.00 and “** (key: * < 50 μM; ** > 50 μM)”.
Consider `CNS(=O)(=O)c1ccc(NC(=O)c2ccc(-c3cc(C(=O)Nc4ccc(N5CCOCC5)cc4)ccc3C)cc2)cc1` [Example 29, 6-Methyl-biphenyl-3,4′-dicarboxylic acid 4′-[(4-methylsulfamoyl-phenyl)-amide] 3-[(4-morpholin-4-yl-phenyl)-amide]], for which, in data set [1], the pIC50 was above 6.00. In addition, in data set [2], the TD50 result was “** (key: * < 50 μM; ** > 50 μM)”.
`Cc1ccc(NC(=O)c2ccco2)cc1-c1ccc(C(=O)Nc2ccc(CN3CCS(=O)(=O)CC3)cc2)cc1` [Example 153, Furan-2-carboxylic acid {4′-[4-(1,1-dioxo-1lambda*6*-thiomorpholin-4-ylmethyl)-phenylcarbamoyl]-6-methyl-biphenyl-3-yl}-amide] had a negative-log IC50 (pIC50) in data set [1] (setting [3]) above 6.00. Also, the TD50 entry in data set [2] (setting [4]) is listed as “* (* < 50 μM)”.
On the same counts, the results for `Cc1ccc(C(=O)Nc2ccc(N3CCOCC3)cc2)cc1-c1ccc(NC(=O)c2ccc(CN3CCS(=O)(=O)CC3)cc2)cc1` [Example 151, 4′-[4-(1,1-Dioxo-1lambda*6*-thiomorpholin-4-ylmethyl)-benzoylamino]-6-methyl-biphenyl-3-carboxylic acid (4-morpholin-4-yl-phenyl)-amide] are above 6.00 and “* (* < 50 μM)”.
In data set [1] (setting [3]), `CCC1(c2ccc(NC(=O)c3ccc(-c4cc(NC(=O)C5CCCCC5)ccc4C)cc3)cc2)CCC(=O)NC1=O` (centres unmarked) [Example 221, 5′-(Cyclohexanecarbonyl-amino)-2′-methyl-biphenyl-4-carboxylic acid [4-(3-ethyl-2,6-dioxo-piperidin-3-yl)-phenyl]-amide] gave a pIC50 above 6.00. The TD50 entry in data set [2] (setting [4]) is given as “* (* < 50 μM)”.
As for `Cc1cccc(CNC(=O)c2ccc(-c3cc(C(=O)Nc4ccc(N5CCOCC5)cc4)ccc3C)cc2)c1` [Example 3, 6-Methyl-biphenyl-3,4′-dicarboxylic acid 4′-(3-methyl-benzylamide) 3-[(4-morpholin-4-yl-phenyl)-amide]], the negative-log IC50 (pIC50) in data set [1] is 5.30 to 6.00. For the same molecule, the TD50 result in data set [2] is given as “** (key: * < 50 μM; ** > 50 μM)”.
In the same order, the values of `Cc1cc(C(=O)Nc2ccc(N3CCOCC3)cc2)ccc1-c1cccc(C(=O)Nc2ccc3cn[nH]c3c2)c1` [Example 63, 2′-Methyl-biphenyl-3,4′-dicarboxylic acid 3-[(1H-indazol-6-yl)-amide] 4′-[(4-morpholin-4-yl-phenyl)-amide]] are above 6.00 and “* (key: * < 50 μM; ** > 50 μM)”.
In turn, `CC(=O)Nc1cccc(NC(=O)c2ccc(-c3cc(C(=O)Nc4ccc(N5CCOCC5)cc4)ccc3C)cc2)c1` [Example 61, 6-Methyl-biphenyl-3,4′-dicarboxylic acid 4′-[(3-acetylamino-phenyl)-amide] 3-[(4-morpholin-4-yl-phenyl)-amide]] gave a negative logarithm of the IC50 (pIC50) in data set [1] of 5.30 to 6.00. Moreover, the TD50 result in data set [2] is listed as “** (key: * < 50 μM; ** > 50 μM)”.
Take `COc1ccc(NC(=O)C2CC2)cc1-c1ccc(C(=O)Nc2ccc(CN3CCS(=O)(=O)CC3)cc2)cc1` [Example 186, 5′-(Cyclopropanecarbonyl-amino)-2′-methoxy-biphenyl-4-carboxylic acid [4-(1,1-dioxo-1lambda*6*-thiomorpholin-4-ylmethyl)-phenyl]-amide]: the pIC50 in data set [1] (setting [3]) is above 6.00. The TD50 result in data set [2] (setting [4]) is on record as “* (* < 50 μM)”.
Regarding `Cc1ccc(NC(=O)C2CCCCC2)cc1-c1ccc(C(=O)Nc2ccc(CN3CCS(=O)(=O)CC3)cc2)cc1` [Example 158, 5′-(Cyclohexanecarbonyl-amino)-2′-methyl-biphenyl-4-carboxylic acid [4-(1,1-dioxo-1lambda*6*-thiomorpholin-4-ylmethyl)-phenyl]-amide], the pIC50 in data set [1] (setting [3]) was above 6.00. For the same molecule, in data set [2] (setting [4]), the TD50 result is recorded as “* (* < 50 μM)”.
In data set [1], `CCc1nnc(NC(=O)c2ccc(C)c(-c3ccc(C(=O)Nc4ccc(CN5CCS(=O)(=O)CC5)cc4)cc3)c2)s1` [Example 143, 6-Methyl-biphenyl-3,4′-dicarboxylic acid 4′-{[4-(1,1-dioxo-1lambda*6*-thiomorpholin-4-ylmethyl)-phenyl]-amide} 3-[(5-ethyl-[1,3,4]thiadiazol-2-yl)-amide]] had a pIC50 of 5.30 to 6.00. The TD50 result in data set [2] is “* (key: * < 50 μM; ** > 50 μM)”.
With `Cc1ccc(C(=O)Nc2ccc(N3CCOCC3)cc2)cc1-c1ccc(NC(=O)c2cccc(Br)c2)cc1` [Example 103, 4′-(3-Bromo-benzoylamino)-6-methyl-biphenyl-3-carboxylic acid (4-morpholin-4-yl-phenyl)-amide], the negative logarithm of the IC50 (pIC50) in data set [1] (setting [3]) was 5.30 to 6.00. The TD50 result in data set [2] (setting [4]) is “** (** > 50 μM)”.

(Values after patent US8008303B2, “Biphenyl derivatives and their use in treating hepatitis C” (AstraZeneca AB, priority 2005, dated 2011).)
